Experimental data reported in US11000033B2, “Ketone or oxime compound, and herbicide” (NISSAN CHEMICAL CORPORATION, priority 2014, dated 2021).

Legend:
Type in all cases: in vivo
Amaranthus retroflexus = experiment: Test Example 5: herbicidal effect by foliage application, plastic box (symbol N); conditions: 320 g/ha, 3 weeks after application
Outline: (§1)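 Visual herbicidal score, taken three weeks post-application, of seedlings sprayed on the foliage with water-diluted emulsion at a predetermined amount; plants were 14 days old, greenhouse-raised at 25° C. to 30° C.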

[1] = system: Echinochloa oryzacola Vasing.; experiment: Test Example 2: herbicidal activity, application during weed generation in submerged conditions (symbol A); conditions: Table 23; application herbicide amount 320 g/ha; grade 0-5 by criteria of Test Example 1
Outline: (§2)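 Visual herbicidal ratings, taken three weeks after dosing, reflect post-emergence water-surface application to seedlings at one to two leaves. Conditions: co-sown weeds in alluvial soil flooded to 4 cm, greenhouse held at 25° C. to 30° C.; compound given as water-diluted emulsion at a fixed herbicide amount.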

Alopecurus myosuroides [2] = experiment: Test Example 5: herbicidal effect by foliage application, plastic box (symbol J); conditions: 320 g/ha, 3 weeks after application
Outline: as §1

[3] = system: Echinochloa crus-galli var. crus-galli; experiment: Test Example 3: herbicidal effect by foliage application, Wagner pot (symbol H); conditions: application herbicide amount 320 g/ha
Outline: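 Herbicidal activity was rated three weeks after a foliar spray of diluted emulsion concentrate, applied at a predetermined dose to plants grown for 14 days from seed in waterlogged alluvial soil within a 25–30 °C greenhouse.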

corn [4] = experiment: Test Example 4: effect on crop by soil treatment (symbol c); conditions: for c: corn, effect grade on crop: 320 g/ha
Outline: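 Greenhouse culture at 25° C. to 30° C. followed sowing of seed in spots on sterilized diluvial soil with a soil cover close to 1.5 cm thick.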

Digitaria ciliaris = experiment: Test Example 5: herbicidal effect by foliage application, plastic box (symbol F); conditions: 320 g/ha, 3 weeks after application
Outline: as §1

Scirpus juncoides = experiment: Test Example 2: herbicidal activity, application during weed generation in submerged conditions (symbol B); conditions: Table 23; application herbicide amount 320 g/ha; grade 0-5 by criteria of Test Example 1
Outline: as §2

transplanted rice plant = experiment: Test Example 1: effect on crop, application before weed generation in submerged conditions (symbol a); conditions: application herbicide amount 320 g/ha
Outline: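 Alluvial soil pots flooded to 4 cm water, sown with Echinochloa oryzacola, Scirpus juncoides and Monochoria vaginalis, then transplanted with 2.5 leaf stage rice seedlings; pre-emergence application. Greenhouse 25° C. to 30° C.; scored 0–5 by herbicidal ratio 3 weeks after application.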

Veronica persica = experiment: Test Example 5: herbicidal effect by foliage application, plastic box (symbol R); conditions: 320 g/ha, 3 weeks after application
Outline: as §1

Alopecurus myosuroides [5] = experiment: Test Example 4: herbicidal effect by soil treatment (symbol J); conditions: for J: Alopecurus myosuroides, herbicidal effect grade: 320 g/ha
Outline: (§3)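 Seeds were sown in sterilized diluvial soil, covered with about 1.5 cm of soil, and the soil surface was sprayed with a water-diluted emulsion of the compound at a predetermined rate. Plants grew in a greenhouse at 25° C. to 30° C.; effects were scored visually 3 weeks after application.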

Abutilon theophrasti = experiment: Test Example 4: herbicidal effect by soil treatment (symbol M); conditions: for M: Abutilon theophrasti, herbicidal effect grade: 320 g/ha
Outline: as §3

corn [6] = experiment: Test Example 5: effect on crop by foliage application, plastic box (symbol c); conditions: 320 g/ha, 3 weeks after application
Outline: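 Soil: sterilized diluvial. Container: plastic box, 21 × 13 cm, 7 cm deep. Sowing: spot-like, ~1.5 cm cover. Growth: greenhouse, 25° C. to 30° C.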

Apera spica-venti = experiment: Test Example 4: herbicidal effect by soil treatment (symbol L); conditions: for L: Apera spica-venti, herbicidal effect grade: 320 g/ha
Outline: as §3

Avena fatua = experiment: Test Example 4: herbicidal effect by soil treatment (symbol I); conditions: for I: Avena fatua, herbicidal effect grade: 320 g/ha
Outline: as §3

[7] = application herbicide amount 320 g/ha

Compound	Herbicidal effect grade, A: Echinochloa oryzacola Vasing. [1]	Herbicidal effect grade, B: Scirpus juncoides (Scirpus juncoides)	N: Amaranthus retroflexus, herbicidal effect (criteria 0-5) (Amaranthus retroflexus)	J: Alopecurus myosuroides, herbicidal effect (criteria 0-5) (Alopecurus myosuroides [2])	herbicidal effect on H (Echinochloa crus-galli var. crus-galli), grade 0-5 [3]	c: corn, effect grade on crop (corn [4])	F: Digitaria ciliaris, herbicidal effect (criteria 0-5) (Digitaria ciliaris)	Effect grade on crop, a: transplanted rice plant (transplanted rice plant)	R: Veronica persica, herbicidal effect (criteria 0-5) (Veronica persica)	J: Alopecurus myosuroides, herbicidal effect grade (Alopecurus myosuroides [5])	M: Abutilon theophrasti, herbicidal effect grade (Abutilon theophrasti)	c: corn, effect on crop (criteria 0-5) (corn [6])	L: Apera spica-venti, herbicidal effect grade (Apera spica-venti)	I: Avena fatua, herbicidal effect grade (Avena fatua)	also measured
CC#Cc1cc(C)c(C2=C(OC(=O)COc3ccccc3)CC(CC(C)=NOCC(F)(F)F)C2=O)c(C)c1 (stereo not shown) [9-013]	5 (Herbicidal ratio of 90% or more (almost completely withered))	5 (Herbicidal ratio of 90% or more (almost completely withered))													N: Amaranthus retroflexus, herbicidal effect grade (Amaranthus retroflexus): 0 (Herbicidal ratio of 5% or lower (almost no effect)); J: Alopecurus myosuroides, herbicidal effect grade (Alopecurus myosuroides [2]): 5 (Herbicidal ratio of 90% or more (almost completely withered)); H (Echinochloa crus-galli var. crus-galli) herbicidal effect grade ([3]; Table 24): 5 (Herbicidal ratio of 90% or more (almost completely withered)); Effect on crop grade, c: corn (corn [4]; [7]): 5 (Herbicidal ratio of 90% or more (almost completely withered)); F: Digitaria ciliaris, herbicidal effect grade (Digitaria ciliaris): 5 (Herbicidal ratio of 90% or more (almost completely withered)); a (transplanted rice plant) effect on crop grade (transplanted rice plant): 5 (Herbicidal ratio of 90% or more (almost completely withered)); R: Veronica persica, herbicidal effect grade (Veronica persica): 4 (Herbicidal ratio of 70% or higher and lower than 90%); Herbicidal effect grade, J: Alopecurus myosuroides (Alopecurus myosuroides [5]; [7]): 5 (Herbicidal ratio of 90% or more (almost completely withered)); Herbicidal effect grade, M: Abutilon theophrasti (Abutilon theophrasti; [7]): 3 (Herbicidal ratio of 40% or higher and lower than 70%); c: corn, effect on crop grade (corn [6]): 5 (Herbicidal ratio of 90% or more (almost completely withered)); Herbicidal effect grade, L: Apera spica-venti (Apera spica-venti; [7]): 5 (Herbicidal ratio of 90% or more (almost completely withered)); Herbicidal effect grade, I: Avena fatua (Avena fatua; [7]): 5 (Herbicidal ratio of 90% or more (almost completely withered))
CC(CC1CC(O)=C(c2c(C)cc(C)cc2C)C1=O)=NOCC(C)Cl (stereo not shown) [1-121]	5 (Herbicidal ratio of 90% or more (almost completely withered))	4 (Herbicidal ratio of 70% or higher and lower than 90%)	0 (Herbicidal ratio of 5% or lower (almost no effect))	5 (Herbicidal ratio of 90% or more (almost completely withered))	5 (Herbicidal ratio of 90% or more (almost completely withered))	1 (Herbicidal ratio of 5% or higher and lower than 20%)	5 (Herbicidal ratio of 90% or more (almost completely withered))	5 (Herbicidal ratio of 90% or more (almost completely withered))	3 (Herbicidal ratio of 40% or higher and lower than 70%)	5 (Herbicidal ratio of 90% or more (almost completely withered))	0 (Herbicidal ratio of 5% or lower (almost no effect))	5 (Herbicidal ratio of 90% or more (almost completely withered))	5 (Herbicidal ratio of 90% or more (almost completely withered))	1 (Herbicidal ratio of 5% or higher and lower than 20%)	
CC(CC1CC(O)=C(c2c(C)cc(C)cc2C)C1=O)=NOCCS(C)(=O)=O (stereo not shown) [1-110]	2 (Herbicidal ratio of 20% or higher and lower than 40%)	0 (Herbicidal ratio of 5% or lower (almost no effect))	0 (Herbicidal ratio of 5% or lower (almost no effect))	5 (Herbicidal ratio of 90% or more (almost completely withered))	5 (Herbicidal ratio of 90% or more (almost completely withered))	4 (Herbicidal ratio of 70% or higher and lower than 90%)	5 (Herbicidal ratio of 90% or more (almost completely withered))	5 (Herbicidal ratio of 90% or more (almost completely withered))	3 (Herbicidal ratio of 40% or higher and lower than 70%)	5 (Herbicidal ratio of 90% or more (almost completely withered))	0 (Herbicidal ratio of 5% or lower (almost no effect))	5 (Herbicidal ratio of 90% or more (almost completely withered))	5 (Herbicidal ratio of 90% or more (almost completely withered))	4 (Herbicidal ratio of 70% or higher and lower than 90%)	
CC(CC1CC(O)=C(c2c(C)cc(C)cc2C)C1=O)=NOCC[S+](C)[O-] (stereo not shown) [1-125]	2 (Herbicidal ratio of 20% or higher and lower than 40%)	0 (Herbicidal ratio of 5% or lower (almost no effect))	0 (Herbicidal ratio of 5% or lower (almost no effect))	5 (Herbicidal ratio of 90% or more (almost completely withered))	5 (Herbicidal ratio of 90% or more (almost completely withered))	2 (Herbicidal ratio of 20% or higher and lower than 40%)	5 (Herbicidal ratio of 90% or more (almost completely withered))	5 (Herbicidal ratio of 90% or more (almost completely withered))	2 (Herbicidal ratio of 20% or higher and lower than 40%)	0 (Herbicidal ratio of 5% or lower (almost no effect))	0 (Herbicidal ratio of 5% or lower (almost no effect))	3 (Herbicidal ratio of 40% or higher and lower than 70%)	5 (Herbicidal ratio of 90% or more (almost completely withered))	3 (Herbicidal ratio of 40% or higher and lower than 70%)	
CON=C(C)CC1CC(OC(=O)N(C)C)=C(c2c(C)cc(C)cc2C)C1=O (stereo not shown) [1-108]	5 (Herbicidal ratio of 90% or more (almost completely withered))	3 (Herbicidal ratio of 40% or higher and lower than 70%)	5 (Herbicidal ratio of 90% or more (almost completely withered))	5 (Herbicidal ratio of 90% or more (almost completely withered))	5 (Herbicidal ratio of 90% or more (almost completely withered))	5 (Herbicidal ratio of 90% or more (almost completely withered))	5 (Herbicidal ratio of 90% or more (almost completely withered))	5 (Herbicidal ratio of 90% or more (almost completely withered))	1 (Herbicidal ratio of 5% or higher and lower than 20%)	5 (Herbicidal ratio of 90% or more (almost completely withered))	4 (Herbicidal ratio of 70% or higher and lower than 90%)	5 (Herbicidal ratio of 90% or more (almost completely withered))	5 (Herbicidal ratio of 90% or more (almost completely withered))	3 (Herbicidal ratio of 40% or higher and lower than 70%)	
